In PMC9479156 (Frontiers in Pharmacology, 2022):
Where two headings read alike, the source gives them in different places.

How the values were obtained:
[1] = system: asexual blood stage P. falciparum W2 (multidrug resistant); experiment: SYBR Green I proliferation assay, asexual blood stage Pf W2; format: cell-based, Plasmodium falciparum
Description: (§1) In vitro cultivation of asexual and gametocyte P. falciparum parasites: P. falciparum asexual blood stage parasites were cultivated in human erythrocytes in RPMI-1640 media supplemented with AlbuMax II under sterile conditions and in a hypoxic environment (90% N2, 5% CO2, and 5% O2) at 37°C as described previously ([Coertzen et al., 2018]; [Wong et al., 2019]). Gametocytes were produced from asexual blood stage parasites in a stage-specific manner through induction of cellular stress as described previously ([Reader et al., 2015]; [Coertzen et al., 2018]; [Wong et al., 2019]; [Reader et al., 2022]).
DHA, artesunate, artemether, chloroquine (CQ), and methylene blue (MB) were used as reference drugs. […] Dose-responses were determined using a 2-fold serial drug dilution on in vitro 95% ring-stage intraerythrocytic Pf parasites (1% parasitemia, 1% hematocrit) at 37°C under 90% N2, 5% CO2, and 5% O2 atmospheric conditions, detecting SYBR green I fluorescence as a marker for parasite proliferation following a 96 h drug treatment ([Smilkstein et al., 2004]; [Verlinden et al., 2011]). Activity against the Pf drug-sensitive NF54 strain and the multi drug-resistant K1 (resistant to CQ, quinine, pyrimethamine, and cycloguanil), and W2 (resistant to CQ, quinine, pyrimethamine, and cycloguanil) strains was evaluated. […]

[2] = system: late stage IV-V P. falciparum NF54 gametocytes; experiment: Luciferase reporter gametocytocidal assay, late stage gametocytes; format: cell-based, Plasmodium falciparum; conditions: for IC50: Plasmodium falciparum; for Fold change preference ratio LG to EG: late vs immature stage gametocytes
Description: as §1
Untreated and 5 μM MB-treated immature and late-stage gametocytes were included as positive and negative controls. MB and artemisone were included as internal reference standards. In all cases, an interference assay to eliminate false positives from possible compound interference with the luciferase readout was run in parallel. Unless otherwise indicated, data are from technical triplicates, performed for three biological replicates. Complete dose-response curves are given in the (Supplementary Figures S2A,B).
(§2) Stage-specific activities of celastrol against immature (stage II-III) and late stage (stage IV-V) gametocytes were determined with the luc reporter line as described previously ([Coertzen et al., 2018]; [Wong et al., 2019]). Also included in Table 2 for direct comparison of activities with celastrol are gametocytocidal data for MB, artemisone and the artemisinin derivatives recorded previously ([Coertzen et al., 2018]; [Wong et al., 2019]).

[3] = system: drug-sensitive and resistant asexual blood stage Pf; experiment: Asexual blood stage activity over all strains (abstract); format: cell-based; conditions: Plasmodium falciparum, read-out: IC50 asexual blood stage Pf
Description: DHA, artesunate, artemether, chloroquine (CQ), and methylene blue (MB) were used as reference drugs. All assay conditions are as previously described ([Coertzen et al., 2018]; [Wong et al., 2019]). Compound working solutions were prepared from a 10 mM stock solution in 100% (v/v) dimethyl sulfoxide (DMSO; Sigma-Aldrich) in AlbuMAX II supplemented RPMI 1640 medium with a final DMSO concentration of 0.1% (v/v), shown to be nontoxic […] to intraerythrocytic asexual blood stage parasites ([Coertzen et al., 2018]). Dose-responses were determined using a 2-fold serial drug dilution on in vitro 95% ring-stage intraerythrocytic Pf parasites (1% parasitemia, 1% hematocrit) at 37°C under 90% N2, 5% CO2, and 5% O2 atmospheric conditions, detecting SYBR green I fluorescence as a marker for parasite proliferation following a 96 h drug treatment ([Smilkstein et al., 2004]; [Verlinden et al., 2011]). Activity against the Pf drug-sensitive NF54 strain and the multi drug-resistant K1 (resistant to CQ, quinine, pyrimethamine, and cycloguanil), and W2 (resistant to CQ, quinine, pyrimethamine, and cycloguanil) strains was evaluated. […] Data analysis was performed using GraphPad Prism (version 6) software, intra-assay variability was monitored with Z-factors, and acceptable inter-assay reproducibility was determined from the percent coefficient of variation (CV) ([Reader et al., 2015]). […]

[4] = system: immature stage II-III P. falciparum NF54 gametocytes; experiment: Luciferase reporter gametocytocidal assay, immature gametocytes; format: cell-based, Plasmodium falciparum; conditions: this study
Description: as §1
Untreated and 5 μM MB-treated immature and late-stage gametocytes were included as positive and negative controls. MB and artemisone were included as internal reference standards. In all cases, an interference assay to eliminate false positives from possible compound interference with the luciferase readout was run in parallel. […]
as §2

[5] = system: LO2 human normal hepatocytes; experiment: MTT cytotoxicity assay LO2; format: cell-based; conditions: Hepatocyte, 72 h, read-out: IC50 LO2
Description: Proliferative and non-proliferative mammalian cell lines: human liver and lung cancer cell lines HepG2 and A549, and immortalized normal liver LO2 and lung BEAS-2B cells were purchased from ATCC (Manassas, VA, United States). Cells were cultured in RPMI-1640 medium supplemented with 10% fetal bovine serum and antibiotics penicillin (50 U/mL) and streptomycin (50 μg/ml; Invitrogen, United Kingdom). All cells were incubated at 37°C in a 5% humidified CO2 incubator.
All test compounds were dissolved in DMSO at a final concentration of 50 mM and stored at −20°C before use. Cytotoxicity was assessed with A549, HepG2, BEAS-2B and LO2 cells. The MTT assay with 3-(4,5-dimethylthiazole-2yl)-2,5-diphenyltetrazolium bromide (5 mg/ml) was performed as previously described ([Ng et al., 2022]). Briefly, 4 × 10^3 cells per well were seeded in 96-well plates before drug treatment. After overnight cell culture, the cells were exposed to different concentrations of selected compounds (0.19–100 μM) for 72 h. Cells without drug treatment were used as control. Next, 10 μl of the MTT solution was added to each well and incubated at 37°C for another 4 h. Solubilization buffer (100 μl) was then added (10 mM HCl in a solution of 10% of SDS) and incubated overnight. The absorbance A at 570 nm was measured on the next day. The percentage of cell viability was calculated using the following formula: Cell viability (%) = Atreated/Acontrol × 100. Dose response curves for all assays are given in the Supplementary Figures S3–S6.
Cytotoxicity was assessed for each of artemisinin, DHA and artemether, and the amino-artemisinins artemiside and artemisone, and celastrol against A549 human lung carcinoma, BEAS-2B non-tumorigenic human bronchial epithelium, HepG2 liver hepatocellular carcinoma and LO2 human normal hepatocytes using the MTT assay ([Ng et al., 2022]). Data are presented in Table 4, and dose response curves are given in the Supplementary Figures S3–S6.

[6] = system: tumour cell lines; parameters: method as in earlier work; conditions: range over cell lines; ref Gravett et al., 2011; Hooft van Huijsduijnen et al., 2013; Dwivedi et al., 2015; Wu et al., 2018; Wong et al., 2020; read-out: IC50 against tumour cell lines; cited from earlier work

Compound	IC50 ([1]; Plasmodium falciparum, W2, 96 h, read-out: IC50 W2)	RI = IC50 W2/IC50 NF54 ([1]; this study)	IC50 ([2]; NF54, abstract, read-out: IC50 late stage Pf NF54 gametocytes)	IC50 ([2]; NF54 gametocytes, luciferase, 72 h, mean ± SEM, this study, read-out: Late stage IV-V (luc 72 h) IC50)	Fold change preference ratio LG to EG ([2]; this study)	Fold change preference ratio LG to EG ([2]; this study, listed as celastrol)	IC50 [3]	IC50 ([4]; Plasmodium falciparum, NF54 gametocytes, luciferase, 48 h, mean ± SEM, read-out: Immature stage II-III (luc 48 h) IC50)	Fold change preference ratio EG to LG ([4]; immature vs late stage gametocytes)	IC50 [5]	IC50 [6]	IC50 ([5]; MTT, ± SD)
CC1=C(O)C(=O)C=C2C1=CC=C1[C@@]2(C)CC[C@@]2(C)[C@@H]3C[C@](C)(C(=O)O)CC[C@]3(C)CC[C@]12C [Celastrol, celastrol]	0.5 ± 0.1 µM	0.61	0.28 µM	0.282 ± 0.0962 µM	4.1	approximately 4	0.5 to 0.82 µM	1.16 µM	0.2	0.78 ± 0.2 µM		
C[C@H]1[C@H](N2CCS(=O)(=O)CC2)O[C@@H]2O[C@@]3(C)CC[C@H]4[C@H](C)CC[C@@H]1[C@@]24OO3 [Artemisone, artemisone]											0.26 to 95.7 µM	> 100 µM
